In patent publication US9212168B2 (priority 2011, dated 2015):

Experiments:
[1] = target: HCV genotype 1b replicon; assay: HCV genotype 1b replicon assay (Renilla luciferase readout); format: cell-based, hepatitis C virus; details: for Genotype 1b: HCV genotype 1b replicon; for EC50: Hepatitis C virus, read-out: Genotype 1b
Method in brief: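 Huh7-derived APC144 subgenomic replicon cells carrying Renilla luciferase–NS3-NS5B, seeded 10,000/well without G418, then treated with compound dose-responses for 48 h at 37 °C (0.5% DMSO final). Luciferase signal fitted by 4-parameter model to EC50, reported as pEC50.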

[2] = tested on: HCV genotype 1a replicon; assay: HCV genotype 1a replicon assay (NS3 protease activity readout); format: cell-based, hepatitis C virus; details: for Genotype 1a: HCV genotype 1a replicon; for EC50: Hepatitis C virus, read-out: Genotype 1a, HCV genotype 1a replicon
Method in brief: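 Genotype 1a subgenomic replicon cells (APC89, Huh7.5) were treated with compound dose-responses in G418-free medium, 0.5% DMSO final, for 48 or 72 hours at 37° C. Lysate NS3/4a protease activity measured with 15 μM FRET substrate, 20 min at 37° C (ex 340/em 509 nm); EC50 by 4-parameter fit.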

Structure (SMILES) | Genotype 1b [1] | Genotype 1a [2] | EC50 [1] [nM] | EC50 [2] [nM]
CNC(=O)N1CCN(c2ccc(C(=O)Nc3cc(OC(F)(F)F)c(-c4ccc(-c5c[nH]c([C@@H]6C[C@H](C)CN6C(=O)[C@@H](NC(=O)OC)C(C)C)n5)cc4)cc3Cl)cn2)[C@H](C)C1 [Example 1-17] | D (D represents pEC50>10 (EC50<0.1 nM)) | D (D represents pEC50>10 (EC50<0.1 nM)) |  | 
COC(=O)NC(C(=O)N1C[C@@H](C)C[C@H]1c1nc(-c2ccc(-c3cc(Cl)c(NC(=O)c4ccc(N5CCN(C(=O)C(C)(C)C)C[C@H]5C)nc4)cc3C(F)(F)F)cc2)c[nH]1)C1CCS(=O)(=O)CC1 (single isomer, unassigned) [Example 19-6] | D (D represents pEC50>10 (EC50<0.1 nM)) | D (D represents pEC50>10 (EC50<0.1 nM)) |  | 
COC(=O)N[C@H](C(=O)N1C[C@@H](SC)C[C@H]1c1nc(-c2ccc(-c3ccc(C(=O)Nc4ccc(N5CCN(C(=O)[C@]6(C)CCCN6C(=O)[C@@H](NC(=O)OC)C(C)C)C[C@H]5C)nc4)cc3OC(F)(F)F)cc2)c[nH]1)C(C)C [Example 6-9] |  |  | < 0.1 | < 0.1
COC(=O)NC(C(=O)N1CC(C)CC1c1nc(-c2ccc(-c3ccc(NC(=O)c4ccc(N5CCN(C(=O)C(C)(C)CO)CC5C)nc4)cc3OC(F)(F)F)cc2)c[nH]1)C(C)O (stereo not shown) [Example 13-30] | D (D represents pEC50>10 (EC50<0.1 nM)) | D (D represents pEC50>10 (EC50<0.1 nM)) |  | 
COC(=O)N[C@H](C(=O)N1C[C@@H](OC)C[C@H]1c1nc(-c2ccc(-c3cc(Cl)c(NC(=O)c4ccc(N5CCN(C(=O)C(C)(C)C)C[C@H]5C)nc4)cc3OC(F)(F)F)cc2)c(CO)[nH]1)C1CCOCC1 [Example 28-15] | D (D represents pEC50>10 (EC50<0.1 nM)) | D (D represents pEC50>10 (EC50<0.1 nM)) |  | 
COCC(=O)N1CCC[C@@]1(C)C(=O)N1CCN(c2ccc(NC(=O)c3ccc(-c4ccc(-c5c[nH]c([C@@H]6C[C@H](SC)CN6C(=O)[C@@H](NC(=O)OC)C(C)C)n5)cc4)c(OC(F)(F)F)c3)cn2)[C@H](C)C1 [Example 6-10] |  |  | < 0.1 | < 0.1
COC(=O)N[C@H](C(=O)N1C[C@@H](OC)C[C@H]1c1nc(-c2ccc(-c3cc(Cl)c(NC(=O)c4ccc(N5C[C@H](C)N(C(=O)[C@]6(C)CCCN6C(=O)CN(C)C)C[C@H]5C)nc4)cc3OC(F)(F)F)cc2)c[nH]1)C1CCOCC1 [Example 28-19] | D (D represents pEC50>10 (EC50<0.1 nM)) | C (C represents pEC50 between and 9 and about 10, (EC50 between 1 nM and 0.1 nM)) |  | 
COC(=O)N[C@H](C(=O)N1C[C@@H](C)C[C@H]1c1nc(-c2ccc(-c3cc(Cl)c(NC(=O)c4ccc(N5CCN(C(=O)C(C)(C)C)C[C@H]5C)nc4)cc3C(F)(F)F)cc2)c[nH]1)C(C)C [Example 1-61] | D (D represents pEC50>10 (EC50<0.1 nM)) | D (D represents pEC50>10 (EC50<0.1 nM)) |  | 
COC(=O)N[C@H](C(=O)N1C[C@@H](C)C[C@H]1c1nc(-c2ccc(-c3cc(Cl)c(NC(=O)c4ccc(N5CCN(C(=O)C(C)(C)CO)C[C@H]5C)nc4)cc3OC(F)(F)F)cc2)c[nH]1)C(C)C [Example 12-8] |  |  | < 0.1 | < 0.1
COC(=O)N[C@H](C(=O)N1C[C@@H](C#N)C[C@H]1c1nc(-c2ccc(-c3cc(Cl)c(NC(=O)c4ccc(N5CCN(C(=O)C(C)(C)CO)C[C@H]5C)nc4)cc3OC(F)(F)F)cc2)c[nH]1)C(C)C [Example 15-12] |  |  | < 0.1 | < 0.1
CNC(=O)N1C[C@@H](C)N(c2ccc(NC(=O)c3ccc(-c4ccc(-c5c[nH]c([C@@H]6C[C@H](C)CN6C(=O)[C@@H](NC(=O)OC)C(C)C)n5)cc4)c(OC(F)(F)F)c3)cn2)C[C@@H]1C [Example 4-14] | D (D represents pEC50>10 (EC50<0.1 nM)) | C (C represents pEC50 between and 9 and about 10, (EC50 between 1 nM and 0.1 nM)) |  | 
